Assay results from US7122294B2, “Photoacid generators with perfluorinated multifunctional anions” (3M Innovative Properties Company, priority 2003, dated 2006).
Several values for one entry are separate records, joined by “and”; a condition that tells them apart may be missing. Equal entries are not always repeated.

How the values were obtained:
Design in all cases: PDSC Peak Max / PDSC Induction Time: unit not given here
[1] = Photo-DSC/DSC cationic curing activity of PAGs in VEX 5015; settings: for PDSC Energy: VEX 5015, 1.0% PAG, 0.1% ITX, light exposure 5 min at 30° C.; for DSC after PDSC Energy / DSC after PDSC Onset Temp / DSC after PDSC Peak Max / PDSC Induction Time / DSC Only (dark) Onset Temp / PDSC Peak Max: VEX 5015; for DSC after PDSC Energy / DSC after PDSC Onset Temp / DSC after PDSC Peak Max: DSC scan after light exposure; for DSC after PDSC Onset Temp / DSC after PDSC Peak Max / DSC Only (dark) Onset Temp: two values = two exotherms; for PDSC Induction Time: light exposure at 30° C.; for DSC Only (dark) Onset Temp: no prior light exposure; for PDSC Peak Max: time to peak maximum of curing exotherm at 30° C.
Description: (§1) Photo-DSC/DSC: Standard (hermetic) liquid sample pans were used. Sample size was kept in the 6 to 8 mg range. Samples were tested using a Dupont Photo-DSC/DSC instrument (available from DuPont, Wilmington, Del.). The light source was a 200 W Hg lamp that delivered about 60 mw/cm at the sample. Samples were exposed in open pans for 5 minutes to the light source at 30° C. then removed from the instrument, sealed and a standard DSC scan run at 10° C./minute to 300° C. A separate DSC experiment was carried out using a sealed sample pan and no prior light exposure to determine the dark reactivity of these PAGs. Comparison of the DSC traces before and after light exposure enables differentiation between the thermal reactivity of the PAGs (in the dark) and their photochemical activity.
(§2) This example describes photo-DSC/DSC experiments designed to quantitatively compare the relative cationic curing reactivities of PAGs of the present invention containing difunctional fluoroorganic sulfonate anions with related PAGs having identical cations and monofunctional perfluoroalkanesulfonate anions. Relative reactivities were measured in three different cationically polymerizable monomer systems, including two different types of epoxies and one vinyl ether.
(§3) The photo-DSC experiment provides information on the photo-cure speed at 30° C. as measured by the induction time (onset) and time to reach the peak maximum in the curing exotherm. […] The energy released under the curing exotherm is a measure of the extent of cure; larger values mean more cure has taken place during the light exposure. […] Comparison with the DSC traces recorded with no prior light exposure provides a measure of the increase in activity after photoactivation of the PAG.
(§4) General: Stock solutions of three cationically curable monomers were prepared as shown in Table 3 with 0.1% (w/w) isopropylthioxanthone (ITX). Epon 828 is a difunctional glycidyl ether epoxy from Shell, ERL-4221 is a difunctional cycloaliphatic epoxy from Union Carbide and VEX 5015 is a trifunctional vinyl ether from Allied Signal. Because of the low sensitivity of these compositions to room lights, all sample preparation was done with the lab lights on but the hood lights off. All PAGs were formulated at 1.0% by weight in the stock monomer/sensitizer solutions. Into a small aluminum pan was weighed 0.02 g of PAG and 0.04 g of propylene carbonate used to promote dissolution of the PAG in the monomer. The pan was heated briefly on a hot plate set at 100° C. to dissolve the PAG, then 2.0 g the stock monomer/sensitizer solution was added. The solution was briefly heated again on a hot plate set at 100° C. to allow complete mixing of the components, then the solution was allowed to cool to room temperature before using.

[2] = Photo-DSC/DSC cationic curing activity of PAGs in Epon 828; settings: for PDSC Energy: Epon 828, 1.0% PAG, 0.1% ITX, light exposure 5 min at 30° C.; for DSC after PDSC Onset Temp / DSC after PDSC Energy / DSC after PDSC Peak Max / PDSC Induction Time / DSC Only (dark) Energy / DSC Only (dark) Onset Temp / DSC Only (dark) Peak Max / PDSC Peak Max: Epon 828; for DSC after PDSC Onset Temp: DSC scan 10° C./minute after light exposure; for DSC after PDSC Energy / DSC after PDSC Peak Max: DSC scan after light exposure; for PDSC Induction Time: light exposure at 30° C.; for DSC Only (dark) Energy / DSC Only (dark) Onset Temp / DSC Only (dark) Peak Max: no prior light exposure; for PDSC Peak Max: time to peak maximum of curing exotherm at 30° C.
Description: as §1, §2, §3, §4

[3] = Photo-DSC/DSC cationic curing activity of PAGs in ERL-4221; settings: for PDSC Energy: ERL-4221, 1.0% PAG, 0.1% ITX, light exposure 5 min at 30° C.; for DSC after PDSC Onset Temp / DSC after PDSC Energy / DSC after PDSC Peak Max / PDSC Induction Time / DSC Only (dark) Energy / DSC Only (dark) Onset Temp / DSC Only (dark) Peak Max / PDSC Peak Max: ERL-4221; for DSC after PDSC Onset Temp: DSC scan 10° C./minute after light exposure; for DSC after PDSC Energy / DSC after PDSC Peak Max: DSC scan after light exposure; for PDSC Induction Time: light exposure at 30° C.; for DSC Only (dark) Energy / DSC Only (dark) Onset Temp / DSC Only (dark) Peak Max: no prior light exposure; for PDSC Peak Max: time to peak maximum of curing exotherm at 30° C.
Description: as §1, §2, §3, §4

| Compound | PDSC Energy [1] | DSC after PDSC Energy [1] | DSC after PDSC Onset Temp [1] | DSC after PDSC Peak Max [1] | PDSC Induction Time [1] | DSC Only (dark) Onset Temp [1] | PDSC Peak Max [1] | PDSC Energy [2] | DSC after PDSC Onset Temp [2] | DSC after PDSC Energy [2] | DSC after PDSC Peak Max [2] | PDSC Induction Time [2] | DSC Only (dark) Energy [2] | DSC Only (dark) Onset Temp [2] | DSC Only (dark) Peak Max [2] | PDSC Peak Max [2] | PDSC Energy [3] | DSC after PDSC Onset Temp [3] | DSC after PDSC Energy [3] | DSC after PDSC Peak Max [3] | also measured |
| --- | --- | --- | --- | --- | --- | --- | --- | --- | --- | --- | --- | --- | --- | --- | --- | --- | --- | --- | --- | --- | --- |
| CC(C)(C)c1ccc([I+]c2ccc(C(C)(C)C)cc2)cc1.O=S(=O)([O-])C(F)(F)C(F)(F)C(F)(F)C(F)(F)C(F)(F)C(F)(F)C(F)(F)C(F)(F)F [DTBPI-PFOS, reference compound] | 230 J/g | 24 J/g | 140 C.° | 163 °C | 1.1 | 100, C.° and 160 C.° | 3.2 | 4 J/g | 100 C.° | 566 J/g | 197 °C | 18.9 | 608 J/g | 175 C.° | 238 °C | 28.4 | 4 J/g | 65 C.° | 560 J/g | 155 °C | PDSC Induction Time [3]: 14.8; DSC Only (dark) Energy [3]: 583 J/g; DSC Only (dark) Onset Temp [3]: 150 C.°; DSC Only (dark) Peak Max [3]: 190; PDSC Peak Max [3]: 22.4 |
| CC(C)(C)c1ccc([I+]c2ccc(C(C)(C)C)cc2)cc1.O=S(=O)([O-])C(F)(F)C(F)(F)C(F)(F)C(F)(F)F [DTBPI-ONf, reference compound] | 242 J/g | 31 J/g | 125 C.° | 159 °C | 0.9 | 100, C.° and 155 C.° | 2.8 | 10 J/g | 100 C.° | 558 J/g | 190 °C | 12.5 | 606 J/g | 175 C.° | 232 °C | 21.2 | 5 J/g | 50 C.° | 577 J/g | 148 °C | PDSC Induction Time [3]: 15.7; DSC Only (dark) Energy [3]: 566 J/g; DSC Only (dark) Onset Temp [3]: 150 C.°; DSC Only (dark) Peak Max [3]: 192; PDSC Peak Max [3]: 24 |
